Laboratory results from patent US4605744A, “Imidazole derivatives” (Hoffmann-La Roche Inc., priority 1985, dated 1986).
Counter-ions that a name gives are not always drawn. Like-named read-outs stand apart in the source and are kept apart here.

What was measured:
Format in all cases: cell-based
[1] = tested on: E. coli 257; test: In vitro antibacterial activity (MIC, Mueller-Hinton broth); settings: Escherichia coli, 257, E. coli 257; read-out: MIC
Description: (§1) Drug dilutions are prepared in Mueller-Hinton broth ranging from 128 to 0.008 μg/ml. The diluted agents are dispensed in 100 μl amounts into the wells of a 96-well tray and used immediately or frozen at -10° to -70° C. until needed. Using an automated inoculator, 1.5 μl of a 10^-2 dilution of an overnight culture is added to each well of the tray. The tops of the trays are then sealed using transparent tape and incubated overnight at 37° C. The trays are examined with the aid of a viewer. The lowest concentration at which no growth is observed is considered to be the minimum inhibitory concentration (MIC).

[2] = tested on: C. diversus CDC 1663-72; test: In vitro antibacterial activity (MIC); settings: Citrobacter koseri, CDC166372; C. diversus CDC 1663-72; read-out: MIC
Description: as §1

[3] = tested on: C. freundii 8ASM; test: In vitro antibacterial activity (MIC); settings: Citrobacter freundii, 8ASM, C. freundii 8ASM; read-out: MIC
Description: as §1

[4] = tested on: C. freundii CDC6; test: In vitro antibacterial activity (MIC); settings: Citrobacter freundii, CDC6, C. freundii CDC6; read-out: MIC
Description: as §1

[5] = tested on: E. aerogenes 503-478; test: In vitro antibacterial activity (MIC); settings: Klebsiella aerogenes, 503478, E. aerogenes 503-478; read-out: MIC
Description: as §1

[6] = tested on: E. aerogenes 83; test: In vitro antibacterial activity (MIC)
Description: as §1

[7] = tested on: E. cloacae 214; test: In vitro antibacterial activity (MIC); settings: Enterobacter cloacae, 214, E. cloacae 214; read-out: MIC
Description: as §1

[8] = tested on: E. cloacae 24; test: In vitro antibacterial activity (MIC); settings: Enterobacter cloacae, 24, E. cloacae 24; read-out: MIC
Description: as §1

[9] = tested on: E. cloacae 5699; test: In vitro antibacterial activity (MIC); settings: Enterobacter cloacae, 5699, E. cloacae 5699; read-out: MIC
Description: as §1

[10] = tested on: E. cloacae 9295; test: In vitro antibacterial activity (MIC); settings: Enterobacter cloacae, 9295, E. cloacae 9295; read-out: MIC
Description: as §1

[11] = tested on: E. cloacae 9570A; test: In vitro antibacterial activity (MIC); settings: Enterobacter cloacae, read-out: MIC
Description: as §1

[12] = tested on: E. coli 387-1; test: In vitro antibacterial activity (MIC); settings: Escherichia coli, 3871, E. coli 387-1; read-out: MIC
Description: as §1

[13] = tested on: E. coli 48; test: In vitro antibacterial activity (MIC)
Description: as §1

[14] = tested on: E. coli 4; test: In vitro antibacterial activity (MIC); settings: Escherichia coli, 4
Description: as §1

[15] = tested on: E. coli 5152; test: In vitro antibacterial activity (MIC); settings: Escherichia coli, 5152, E. coli 5152; read-out: MIC
Description: as §1

[16] = tested on: K. pneumoniae 35; test: In vitro antibacterial activity (MIC); settings: Klebsiella pneumoniae; K. pneumoniae 35; read-out: MIC
Description: as §1

[17] = tested on: K. pneumoniae 4964; test: In vitro antibacterial activity (MIC); settings: Klebsiella pneumoniae, 4964, K. pneumoniae 4964; read-out: MIC
Description: as §1

[18] = tested on: K. pneumoniae 503-994; test: In vitro antibacterial activity (MIC); settings: Klebsiella pneumoniae, 503994, K. pneumoniae 503-994; read-out: MIC
Description: as §1

[19] = tested on: K. pneumoniae 5096; test: In vitro antibacterial activity (MIC)
Description: as §1

[20] = tested on: K. pneumoniae HE7; test: In vitro antibacterial activity (MIC); settings: Klebsiella pneumoniae; K. pneumoniae HE7; read-out: MIC
Description: as §1

[21] = tested on: P. mirabilis 2; test: In vitro antibacterial activity (MIC); settings: Proteus mirabilis, 2, P. mirabilis 2; read-out: MIC
Description: as §1

[22] = tested on: P. mirabilis 503-1136; test: In vitro antibacterial activity (MIC); settings: Proteus mirabilis, 5031136, P. mirabilis 503-1136; read-out: MIC
Description: as §1

[23] = tested on: P. vulgaris 101; test: In vitro antibacterial activity (MIC); settings: Proteus vulgaris, 101, P. vulgaris 101; read-out: MIC
Description: as §1

[24] = tested on: P. vulgaris ATCC 6380; test: In vitro antibacterial activity (MIC); settings: Proteus vulgaris, ATCC6380, P. vulgaris ATCC 6380; read-out: MIC
Description: as §1

[25] = tested on: S. aureus Smith; test: In vitro antibacterial activity (MIC); settings: Staphylococcus aureus, S. aureus Smith; read-out: MIC
Description: as §1

[26] = tested on: S. marcescens 5805; test: In vitro antibacterial activity (MIC); settings: Serratia marcescens, 5805, S. marcescens 5805; read-out: MIC
Description: as §1

[27] = tested on: S. marcescens S147; test: In vitro antibacterial activity (MIC); settings: Serratia marcescens; S. marcescens S147; read-out: MIC
Description: as §1

[28] = tested on: S. marcescens S1; test: In vitro antibacterial activity (MIC); settings: Serratia marcescens, S1, S. marcescens S1; read-out: MIC
Description: as §1

[29] = tested on: S. marcescens S3; test: In vitro antibacterial activity (MIC); settings: Serratia marcescens; S. marcescens S3; read-out: MIC
Description: as §1

[30] = tested on: S. marcescens S4; test: In vitro antibacterial activity (MIC); settings: Serratia marcescens, S4, S. marcescens S4; read-out: MIC
Description: as §1

[31] = tested on: S. marcescens S714; test: In vitro antibacterial activity (MIC); settings: Serratia marcescens, S714, S. marcescens S714; read-out: MIC
Description: as §1

[32] = tested on: S. schottmuelleri; test: In vitro antibacterial activity (MIC); settings: read-out: MIC
Description: as §1

[33] = tested on: S. typhi P58A; test: In vitro antibacterial activity (MIC); settings: Salmonella enterica, TYPHI
Description: as §1

[34] = tested on: P. aeruginosa 503-56; test: In vitro antibacterial activity (MIC); settings: Pseudomonas aeruginosa, 50356, P. aeruginosa 503-56; read-out: MIC
Description: as §1

Compound | MIC [1] [µg/mL] | MIC [2] [µg/mL] | MIC [3] [µg/mL] | MIC [4] [µg/mL] | MIC [5] [µg/mL] | MIC [7] [µg/mL] | MIC [8] [µg/mL] | MIC [9] [µg/mL] | MIC [10] [µg/mL] | MIC [11] [µg/mL] | MIC [12] [µg/mL] | MIC [14] [µg/mL] | MIC [15] [µg/mL] | MIC [16] [µg/mL] | MIC [17] [µg/mL] | MIC [18] [µg/mL] | MIC [20] [µg/mL] | MIC [21] [µg/mL] | MIC [22] [µg/mL] | MIC [23] [µg/mL] | other results
CC1(C)S[C@@H]2[C@H](N=CN3CCC(CCCn4ccnc4CO)CC3)C(=O)N2[C@H]1C(=O)O [R, [2S-(2alpha,5alpha,6beta)]-6-[[[4-[3-[2-(hydroxymethyl)-1H-imidazol-1-yl]propyl-1-piperidinyl]methylene]amino]-3,3-dimethyl-7-oxo-4-thia-1-azabicyclo[3.2.0]heptane-2-carboxylic acid hydrochloride 1.1 molar hydrate] | 0.016 | 0.016 | < 0.008 | 0.062 | 0.5 | 0.5 | 0.25 | 0.062 | 0.125 | 0.062 | 2 | 2 | 4 | 0.062 | 0.5 | 0.016 | > 128 | 0.25 | 4 | 1 | MIC ([6]; Klebsiella aerogenes, 83): 1 µg/mL; MIC ([13]; Escherichia coli, 48, E. coli 48, read-out: MIC): 0.016 µg/mL; MIC ([19]; Klebsiella pneumoniae, 5096, K. pneumoniae 5096): 8 µg/mL; MIC [24]: < 0.008 µg/mL; MIC [25]: 8 µg/mL; MIC [26]: 1 µg/mL; MIC [27]: 0.125 µg/mL; MIC [28]: 0.062 µg/mL; MIC [29]: 0.125 µg/mL; MIC [30]: 0.5 µg/mL; MIC [31]: 1 µg/mL; MIC [32]: < 0.008 µg/mL; MIC [33]: 0.062 µg/mL
CN(C)C=Nc1nccn1CCCC1CCN(C=N[C@@H]2C(=O)N3[C@@H]2SC(C)(C)[C@@H]3C(=O)O)CC1 [S, [2S-(2alpha,5alpha,6beta)]-6-[[[4-[3-[2-[[(dimethylamino)methylene]amino]-1H-imidazol-1-yl]propyl]-1-piperidinyl]methylene]amino]-3,3-dimethyl-7-oxo-4-thia-1-azabicyclo[3.2.0]heptane-2-carboxylic acid 1.7 molar hydrochloride 2.6 molar hydrate] | 0.25 | 0.5 | 0.125 | 0.5 | 2 | 4 | 1 | 1 | 1 | 1 | 2 | 4 | 8 | 0.5 | 0.5 | 0.5 | > 128 | 2 | 8 | 8 | MIC ([6]; Klebsiella aerogenes, 83, E. aerogenes 83, read-out: MIC): 4 µg/mL; MIC ([13]; Escherichia coli, 48): 0.5 µg/mL; MIC ([19]; Klebsiella pneumoniae, K. pneumoniae 5096, read-out: MIC): > 128 µg/mL; MIC [34]: > 128 µg/mL; MIC [24]: 1 µg/mL; MIC [25]: 8 µg/mL; MIC [26]: 4 µg/mL; MIC [27]: 2 µg/mL; MIC [28]: 4 µg/mL; MIC [29]: 2 µg/mL; MIC [30]: 4 µg/mL; MIC [31]: 4 µg/mL; MIC [32]: 0.25 µg/mL; MIC [33]: 0.25 µg/mL
